From article PMC7862291, “Full-length in meso structure and mechanism of rat kynurenine 3-monooxygenase inhibition” (Communications Biology, 2021)
Where two headings read alike, the source gives them in different places.

Experiment: Pharmacokinetic (brain penetration) study in rats
Type: in vivo
Conditions: Sprague-Dawley Crl:CD(SD), rat, male SD rats, 10 mg/kg ip, 1 h after a single administration
Protocol: Brain penetration studies were conducted in non-fasted male SD rats [Sprague-Dawley rats Crl:CD(SD), 8 weeks of age]. Compound 1 was intraperitoneally (ip) administered at 10 mg/kg in a solution of saline containing 10% dimethylformamide, 10% propylene glycol, and 4% 1 normality (N) sodium hydrate. […] Blood and brain were collected at 1 h after a single administration. The test compound in plasma samples or brain samples was extracted by deproteination with acetonitrile, and then analysed using LC-MS/MS.

Kp at 1 h (brain/plasma): 0.8
concentration at 1 h (brain, read-out: Exposure in brain): 6020 ng/g
concentration at 1 h (plasma, read-out: Exposure in plasma): 7560 ng/mL
SMILES: Cn1c(=O)[nH]c(=O)c2cc(-c3ncccc3-c3ccc(Cl)c(F)c3)ccc21 [Compound 5]
